Reference: patent publication US7910622B2, “Modulation of bacterial quorum sensing with synthetic ligands” (Wisconsin Alumni Research Foundation, priority 2007, dated 2011)

Biological target: T1, LuxR (Aliivibrio fischeri, UniProt P35327)
T1 construct: a Δ-luxI derivative of V. fischeri ES114, in which the native lux operon behaves as the bioluminescent reporter; endogenous in cells; host or cells: V. fischeri ES114 (Δ-luxI)
Experiment: cell-based
Type: cell-based, Vibrio fischeri
Settings: for inhibition at 5 µM: read-out: V. fischeri-LuxR Inhibition [%], 5 μM synthetic ligand against 5 μM OHHL; for inhibition at 5 µM / V. fischeri-LuxR Inhibition [%]: V. fischeri ES114 (Δ-luxI), normalized to OHHL; for V. fischeri-LuxR Inhibition [%]: 5 μM synthetic ligand against 5 μM OHHL; for IC50: LuxR IC50, determined against 5 μM OHHL
Protocol: Luminescence assays. For agonism assays, an appropriate amount of AHL stock solution was added into a 96-well plate. An overnight culture of E. coli or V. fischeri was diluted 1:10 with appropriate media (LB plus 10 μg/mL tetracycline for E. coli; LBS for V. fischeri). A 200-μL portion of the diluted culture was added to each well of the plate. Plates were grown for 4-8 h with shaking (200 rpm; 30° C. for E. coli and RT for V. fischeri). Luminescence was measured using a multilabel plate reader and normalized to cell density. […] All assays were performed in triplicate. Graphpad Prism software was used to calculate IC50 and EC50 values.
Vibrio fischeri assay procedures. […] An overnight culture of V. fischeri ES114 (WT, Δ-luxI or Δ-luxR) was diluted 1:10 with LBS medium. A-200 μL portion of the diluted culture was added to each well of the plate. Plates were grown at RT with shaking (200 rpm) until the OD600=0.35-0.4 (4-6 h). Luminescence then was measured and normalized to cell density per well. […] All assays were performed in triplicate. IC50 and EC50 values were calculated using GraphPad Prism software using a sigmoidal curve fit.
(§1) V. fischeri reporter gene assay protocols. […] An overnight culture of V. fischeri ES114 (D-luxI) was diluted 1:10 with LBS medium. A 200-μL portion of the diluted culture was added to each well of the multititer plate. Plates were grown at RT with shaking (200 rpm) until the OD600=0.35-0.4 (4-6 h). Luminescence then was measured and normalized to cell density per well.
(§2) Dose response reporter gene assays. […] IC50 and EC50 values were calculated using GraphPad Prism software (v. 4.0) using a sigmoidal curve fit.
as §1, with “(Δ-luxI)” for “(D-luxI)”, “A200 μL” for “A 200-μL”, “incubated” for “grown”, “RT” for “RT with shaking (200 rpm)”
as §2

T1 sequence (P35327 whole entry): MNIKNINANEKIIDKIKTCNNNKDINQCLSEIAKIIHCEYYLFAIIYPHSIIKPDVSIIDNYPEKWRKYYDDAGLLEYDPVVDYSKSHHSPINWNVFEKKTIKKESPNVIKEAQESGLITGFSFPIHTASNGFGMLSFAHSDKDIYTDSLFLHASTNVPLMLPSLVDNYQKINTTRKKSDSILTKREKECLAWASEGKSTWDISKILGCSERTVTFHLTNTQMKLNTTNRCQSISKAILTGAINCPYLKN

| SMILES | inhibition at 5 µM | V. fischeri-LuxR Inhibition [%] | IC50 |
| --- | --- | --- | --- |
| O=C(Cc1ccc(-c2ccccc2)cc1)N[C@H]1CCOC1=O [11q, 4-phenyl PHL] | ~80% | – | – |
| Nc1ccc(CC(=O)N[C@H]2CCOC2=O)cc1 [11v, 4-amino PHL] | – | lowest inhibitory activities | – |
| O=C(CCCc1ccccc1)N[C@@H]1CCOC1=O [D-3] | – | ca. 20% | – |
| O=C(Cc1ccc(Br)cc1)N[C@@H]1CCOC1=O [D-5] | – | ca. 20% | – |
| CCCCCCCCCC(=O)CC(=O)N[C@H]1CCOC1=O [A8, N-(3-oxo-dodecanoyl)-L-homoserine lactone, reference compound] | – | – | 0.4 µM |
| O=C(Cc1ccc(C(F)(F)F)cc1)N[C@H]1CCOC1=O [11s, 4-trifluoromethyl PHL] | ~80% | – | 0.6 µM |
| O=C(Cc1ccc(O)cc1)N[C@H]1CCOC1=O [11w, 4-hydroxy PHL] | – | lowest inhibitory activities | – |
| O=C(Cc1ccccc1)N[C@H]1CCOC1=O [11a] | – | abolished inhibitory activity | – |
